Experimental data published in patent publication US8785400B2, “Methods and compositions relating to islet cell neogenesis” (CureDM Group Holdings, LLC, priority 2006, dated 2014).

What was measured:
[1] = system: streptozocin-induced diabetic mouse; assay: Streptozocin-induced diabetic mouse (Example 6); format: in vivo
Text: The streptozocin-induced diabetic mouse is a convenient animal model of type 1 diabetes because researchers are able to chemically induce diabetes under controlled conditions rather than waiting for mice to become diabetic naturally or by forcing diabetes through prescribed obesity. Based on experience with the streptozocin model in the rat, a high degree of variability was anticipated for the induction of the disease in mice and therefore 60 mice were induced with streptozocin. Mice were injected intraperitoneally with streptozocin at 40 mg/kg in citrate buffer, pH4.5, on 5 consecutive days in an attempt to render them diabetic. A mouse was considered diabetic once its blood glucose level was greater than 16.7 mmol/L (300 mg/dL) for at least 1 week. If the blood glucose level of any animal became too high (>400 mg/dL) the animal was treated with an effective amount of insulin. In this example, 60 male mice, ranging from 6-8 weeks old at the outset of the study, were treated with streptozocin as described above. Those mice that were declared diabetic were then used to test the effectiveness of HIP2 as compared to other test agents.
Animals were group housed in compliance with the National Research Council “Guide for the Care and Use of Laboratory Animals”. The animals received 12 hours light/12 hours dark, except when room lights were turned on during the dark cycle to accommodate study procedures. Room temperature was maintained between 18 to 26° C. at all times. Relative humidity was maintained between 30-70% at all times. All animals were given access to Harlan Teklad Rodent Diet or equivalent and tap water via water bottle. Animals were allowed to acclimate to their new environment for a minimum of 7 days prior to first dosing.
Mice were randomly divided and assigned to study groups. Each study group was assigned treatment with one of 5 test agents (see Treatment section below). Prior to being treated, each mouse was tested for diabetes via monitoring their blood glucose levels. After confirmation that the mice were diabetic (blood glucose levels greater than 16.7 mmol/L (300 mg/dL) for at least 1 week) the mice were dosed with their respective test agent.
Each study group received doses of one of the following test agents: HIP2, HIP1, HIP, Hamster INGAP (SEQ ID NO:1) or isotonic saline “Vehicle” (0.9% NaCl) (negative control). Mice were given doses of their respective agent interperitoneally twice daily (am and pm, +/−2 hours for each administration) at 250 ug/dose, in 100 ul dose volume, for 28 consecutive days. Test agents were prepared once daily by dissolving the appropriate amount of test agent in isotonic saline to result in a 2.5 mg/ml solution. Blood glucose levels were tested every 3 days, at the same time each day, using a glucometer. If the blood glucose level in any animal became too high, the animal was treated with insulin. At the end of the treatment, all surviving animals were euthanized by CO2 asphyxiation following terminal blood collection. Blood samples were collected under CO2 cardiocentesis. The plasma was separated and then frozen at −80° C. For histological analysis, the pancreas from each mouse was removed and snap-frozen.
Blood glucose levels are measured every 3 days and tracked to evaluate differences in glucose levels.

[2] = system: human pancreatic ductal tissue cultures; assay: Insulin production by ELISA, human ductal tissue cultures (Example 3); format: cell-based
Protocol: Samples are 5 μg total protein in duplicate and measured by ELISA assay.
Values are mean insulin units (of duplicate samples) as measured by ELISA assay.
Human pancreatic tissue was treated as described in Example 1 and Insulin production was measured by ELISA assay. FIGS. 5 and 6 show the results of this experiment to show a dose response and to again compare the effect of HIP2 on the two different fractions of tissue as compared to the hamster INGAP sequence and a scrambled negative peptide sequence. […] The results in FIG. 5 were generated using 5 μg of each peptide, while the results in FIG. 6 were acquired using 0.002 μg of each peptide.

[3] = streptozocin mice, 250 ug/dose i.p. twice daily, 28 days, vs other test agents

## HIP2: Human proIslet Peptide, fragment of human REG3A, in purified, synthetic, or recombinant form (SEQ ID NO:4) (IGLHDPTQGTEPNG; Fragment of naturally occurring human REG3 protein)
[1]
  time at which mice were completely insulin-free: ≤ 21 days
[1]; streptozocin mice
  glucose levels from baseline compared with control: significant reduction
[1]; [3]
  blood glucose levels: pronounced reduction
  insulinitis in the pancreas: decreased showing of insulinitis
[1]; streptozocin mice, compared to placebo
  insulin requirements (and rate of decrease): Significant reductions
[2]; ductal cultures
  effect of the higher concentration on insulin production: more profound effect
[2]; ductal cultures, after 10 days, Rosenberg protocol, 5 μg, vs SEQ ID NO:1 and SEQ ID NO:5
  insulin production (FIG. 5): increased insulin production
[2]; ductal cultures, two concentrations (3 μM and 1 mM), vs SEQ ID NO:1 and SEQ ID NO:5
  insulin production (FIG. 8B): increased insulin production
[2]; in each of the examples (ductal and islet fractions)
  induction of insulin production compared with INGAP or scrambled peptide: more effectively
